Experimental findings from patent US8293769B2, “CSF-1R inhibitors, compositions, and methods of use” (Novartis AG, priority 2008, dated 2012) are described below.

The inhibition is the percentage by which the read-out fell short of the control.

One assay has as its target T1, PDGFRb (Homo sapiens, UniProt P09619).
T1 construct: The kinase domain of PDGFRβ was assayed in 50 mM Hepes; purchased Invitrogen P3082
Briefly: PDGFRb kinase in vitro biochemical assay (alphascreen). Particulars: tested at about 1 μM; read-out: PDGF RK BETA percent inhibition. For orientation: Bead proximity is the source of the signal in Alpha formats.

For assay [1], the system named is MNFS60 (murine AML cells). Put plainly: Cell viability assay in MCSF dependent MNFS60 cells (Cell Titer Glo). In kind it is cell-based. Conditions: Mus musculus; tested at about 1 μM; MCSF 10 ng/mL, 72 hrs; read-out: CPEC50 MNFS60MCSF percent inhibition. In short, it runs like this:
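MNFS60 cells, 5,000 per well in RPMI-1640/10% FBS, grown with 10 ng/mL MCSF and 3-fold compound dilutions for 72 h at 37 °C. Viable cells measured by CellTiter-Glo luminescence, triplicates; EC50 fitted, with MCSF-free wells as 100% inhibition.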

Assay [2] has as its target T2, full-length human CSF-1R receptor (Homo sapiens, UniProt P07333).
T2 construct: transfected with the full-length human CSF-1R receptor cloned in house; expressed in transfected cells; host or cells: HEK293H (Invitrogen Cat. #11631017)
Put plainly: In vitro inhibition of CSF-1R receptor tyrosine phosphorylation in transfected HEK293H cells. In kind it is cell-based. Conditions: HEK293-H, tested at about 1 μM, 50 ng/mL MCSF, read-out: PCSF1R percent inhibition. As for the experimental part: To test the inhibition of CSF-1R receptor tyrosine phosphorylation, HEK293H purchased from Invitrogen Cat. #11631017 cells transfected with the full-length human CSF-1R receptor cloned in house into mammalian episomal transfection vector were incubated for 1 h with serial dilutions of compounds starting at 10 μM with 3 fold dilutions and then stimulated for 8 min with 50 ng/mL MCSF. After the supernatant was removed, the cells were lysed on ice with lysis buffer (150 mM NaCl, 20 mM Tris, pH 7.5, 1 mM EDTA, 1 mM EGTA, 1% Triton X-100 and NaF, protease and phosphatase inhibitors) and then shaken for 15-20 min at 4° C. The lysate was then transferred to total CSF-1R antibody coated 96-well plates that had already been blocked with 3% Blocker A from Mesoscale discovery (MSD) for 2 hours and washed afterwards. Lysates were incubated overnight at 4° C. and the plates were then washed 4× with MSD Tris Wash Buffer. The SULFO-TAG anti-pTyr antibody from MSD was diluted to 20 nM final in 1% Blocker A (MSD) solution and added to the washed plates and incubated for 1.5-2 h before addition of read buffer (MSD). The plates were read on the Sector 6000 instrument (MSD). Raw data was imported in Abase and EC50s calculated with XL-fit data analysis software.

In the next assay the target is T3, cKIT (Homo sapiens, UniProt P10721).
T3 construct: The kinase domain of cKIT was assayed in 50 mM Hepes; purchased Upstate 14-559
T3 sequence (P10721 589-937 limits assumed): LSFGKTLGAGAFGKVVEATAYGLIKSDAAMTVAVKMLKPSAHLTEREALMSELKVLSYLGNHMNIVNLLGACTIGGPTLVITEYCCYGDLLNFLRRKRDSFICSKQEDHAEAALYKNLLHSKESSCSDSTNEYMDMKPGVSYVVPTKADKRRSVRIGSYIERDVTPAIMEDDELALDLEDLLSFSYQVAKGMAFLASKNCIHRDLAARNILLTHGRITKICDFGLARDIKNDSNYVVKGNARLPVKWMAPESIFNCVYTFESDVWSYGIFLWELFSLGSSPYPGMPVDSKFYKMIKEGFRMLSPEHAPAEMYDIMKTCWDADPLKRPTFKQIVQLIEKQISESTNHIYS
Briefly: cKIT kinase in vitro biochemical assay (alphascreen). Conditions: tested at about 1 μM; read-out: CKIT percent inhibition.

Assay [3] concerns the target T4, cytoplasmic domain of the human CSF-1R (Homo sapiens, UniProt P07333).
T4 construct: Recombinant protein corresponding to the cytoplasmic domain of the human CSF-1R; purchased Invitrogen Corporation, Carlsbad, Calif; PV3249
T4 sequence (P07333 539-972 limits assumed): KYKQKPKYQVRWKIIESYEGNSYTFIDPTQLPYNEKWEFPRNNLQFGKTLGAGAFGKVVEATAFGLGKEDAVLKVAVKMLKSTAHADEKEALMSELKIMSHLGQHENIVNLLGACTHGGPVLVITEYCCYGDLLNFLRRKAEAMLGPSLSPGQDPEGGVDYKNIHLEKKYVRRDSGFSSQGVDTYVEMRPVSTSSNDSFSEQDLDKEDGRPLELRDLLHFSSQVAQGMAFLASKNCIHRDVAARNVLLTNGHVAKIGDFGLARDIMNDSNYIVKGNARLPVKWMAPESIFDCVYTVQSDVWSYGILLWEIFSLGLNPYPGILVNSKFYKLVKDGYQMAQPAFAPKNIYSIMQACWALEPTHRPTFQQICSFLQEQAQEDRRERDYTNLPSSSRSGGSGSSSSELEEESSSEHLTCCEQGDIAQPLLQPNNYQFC
Put plainly: In vitro kinase assay for CSF-1R (AlphaScreen). Conditions: tested at about 1 μM; read-out: CSF1RK 1 percent inhibition. In kind it is biochemical. Summed up: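 Recombinant CSF-1R cytoplasmic domain (4 nM) phosphorylated biotinylated peptide (0.05 μM) at 1.0 μM ATP in HEPES with Mg2+/Mn2+, 2 h at room temperature, compounds from 25 μM in 3-fold steps. AlphaScreen anti-phosphotyrosine PT66 detection; IC50 by non-linear regression.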

T2 sequence (P07333 20-972): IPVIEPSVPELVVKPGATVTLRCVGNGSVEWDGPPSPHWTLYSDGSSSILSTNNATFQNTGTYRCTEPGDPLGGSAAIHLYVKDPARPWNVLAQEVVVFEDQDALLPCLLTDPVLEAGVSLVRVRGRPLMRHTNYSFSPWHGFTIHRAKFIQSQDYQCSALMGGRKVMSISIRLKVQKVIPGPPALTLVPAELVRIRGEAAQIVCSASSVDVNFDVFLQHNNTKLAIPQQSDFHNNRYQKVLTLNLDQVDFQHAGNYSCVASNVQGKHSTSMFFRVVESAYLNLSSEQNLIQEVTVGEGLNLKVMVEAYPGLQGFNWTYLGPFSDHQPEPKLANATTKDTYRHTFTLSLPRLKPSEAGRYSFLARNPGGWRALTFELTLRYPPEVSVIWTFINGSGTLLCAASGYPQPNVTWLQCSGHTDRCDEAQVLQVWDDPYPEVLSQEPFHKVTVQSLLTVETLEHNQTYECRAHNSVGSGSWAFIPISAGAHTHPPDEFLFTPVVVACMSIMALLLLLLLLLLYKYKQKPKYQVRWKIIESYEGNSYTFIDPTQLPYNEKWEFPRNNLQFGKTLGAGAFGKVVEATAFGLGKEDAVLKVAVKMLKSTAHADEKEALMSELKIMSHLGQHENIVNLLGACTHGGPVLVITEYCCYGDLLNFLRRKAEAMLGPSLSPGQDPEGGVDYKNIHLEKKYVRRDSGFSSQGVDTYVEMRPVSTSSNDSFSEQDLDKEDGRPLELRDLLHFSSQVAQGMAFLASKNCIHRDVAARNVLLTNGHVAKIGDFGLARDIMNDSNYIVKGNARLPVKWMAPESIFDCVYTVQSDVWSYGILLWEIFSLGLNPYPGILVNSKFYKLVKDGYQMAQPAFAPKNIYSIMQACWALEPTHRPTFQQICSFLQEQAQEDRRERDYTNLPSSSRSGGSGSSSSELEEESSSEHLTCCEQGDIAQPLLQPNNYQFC
T1 sequence (P09619 600-962 limits assumed): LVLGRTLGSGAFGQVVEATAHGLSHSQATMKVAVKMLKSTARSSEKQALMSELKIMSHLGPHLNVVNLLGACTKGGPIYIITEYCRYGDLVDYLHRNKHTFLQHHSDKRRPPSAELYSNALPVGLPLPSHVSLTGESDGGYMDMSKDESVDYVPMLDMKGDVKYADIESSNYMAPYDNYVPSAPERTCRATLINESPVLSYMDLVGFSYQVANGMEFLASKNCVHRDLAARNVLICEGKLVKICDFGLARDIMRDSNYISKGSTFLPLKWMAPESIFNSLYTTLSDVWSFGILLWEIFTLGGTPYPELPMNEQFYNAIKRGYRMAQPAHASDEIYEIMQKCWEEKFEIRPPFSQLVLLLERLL

In the case of `O[C@@H]1CCCC[C@H]1Nc1nc2ccc(Oc3cncc(-c4ccncc4)c3)cc2s1` [Compound 60, (1R,2R)-2-(6-(3,4′-bipyridin-5-yloxy)benzo[d]thiazol-2-ylamino)cyclohexanol], the inhibition at 1 µM at PDGFRb was found to be 3%; in assay [1] it was 97%; in assay [2], 95%; on cKIT, 52%; in assay [3], 100%.

Turning to `Nc1ncc(-c2cncc(Oc3ccc4nc(N[C@@H]5CCCC[C@H]5O)sc4c3)c2)cn1` [Compound 63, (1R,2R)-2-(6-(5-(2-aminopyrimidin-5-yl)pyridin-3-yloxy)benzo[d]thiazol-2-ylamino) cyclohexanol], the inhibition at 1 µM on PDGFRb came out at 14%; in assay [1], 61%; in assay [2], 80%; at cKIT, 35%; in assay [3], 100%.

Consider `O[C@@H]1CCCC[C@H]1Nc1nc2ccc(Oc3cncc(-c4ccc(F)cc4)c3)cc2s1` [Compound 64, (1R,2R)-2-(6-(5-(4-fluorophenyl)pyridin-3-yloxy)benzo [d]thiazol-2-ylamino) cyclohexanol], for which the inhibition at 1 µM came out at 8% on PDGFRb; 100% in assay [1]; 95% in assay [2]; 54% on cKIT; 100% in assay [3].

`Cn1ccnc1-c1cncc(Oc2ccc3nc(N[C@@H]4CCCC[C@H]4O)sc3c2)c1` [Compound 66, (1R,2R)-2-(6-(5-(1-methyl-1H-imidazol-2-yl)pyridin-3-yloxy)benzo[d]thiazol-2-ylamino) cyclohexanol]: the inhibition at 1 µM on PDGFRb was determined as 9%; in assay [1] it was 90%; in assay [2], 96%; on cKIT, 40%; in assay [3], 100%.

Take `Cn1cncc1-c1cncc(Oc2ccc3nc(N[C@@H]4CCCC[C@H]4O)sc3c2)c1` [Compound 68, (1R,2R)-2-(6-(5-(1-methyl-1H-imidazol-5-yl)pyridin-3-yloxy)benzo[d]thiazol-2-ylamino) cyclohexanol]: the inhibition at 1 µM on PDGFRb was 21%; in assay [1], 85%; in assay [2], 93%; on cKIT, 33%; in assay [3], 100%.

As to `CC(C)(C)OC(=O)N1CC=C(c2cncc(Oc3ccc4nc(N[C@@H]5CCCC[C@H]5O)sc4c3)c2)CC1` [Compound 79], the inhibition at 1 µM on PDGFRb amounted to 9%; in assay [1] it was 93%; in assay [2] it was 93%; at cKIT, 48%; in assay [3], 100%.

For the molecule `O[C@@H]1CCCC[C@H]1Nc1nc2ccc(Oc3cncc(-c4cn[nH]c4)n3)cc2s1` [Compound 92, (1R,2R)-2-(6-(6-(1H-pyrazol-4-yl)pyrazin-2-yloxy)benzo [d]thiazol-2-ylamino) cyclohexanol], the inhibition at 1 µM was determined as 23% on PDGFRb; 70% in assay [1]; 93% in assay [2]; 27% at cKIT; 100% in assay [3].

Regarding `Cn1cc(-c2cncc(Oc3ccc4nc(N[C@@H]5CCCC[C@H]5O)sc4c3)n2)cn1` [Compound 93, (1R,2R)-2-(6-(6-(1-methyl-1H-pyrazol-4-yl)pyrazin-2-yloxy)benzo[d]thiazol-2-ylamino)cyclohexanol], the inhibition at 1 µM was found to be 22% at PDGFRb; 82% in assay [1]; 95% in assay [2]; 18% at cKIT; 100% in assay [3].

In the case of `CCCn1cc(-c2cncc(Oc3ccc4nc(N[C@@H]5CCCC[C@H]5O)sc4c3)n2)cn1` [Compound 94, (1R,2R)-2-(6-(6-(1-propyl-1H-pyrazol-4-yl)pyrazin-2-yloxy)benzo[d]thiazol-2-ylamino)cyclohexanol], the inhibition at 1 µM is 9% at PDGFRb; 80% in assay [1]; 95% in assay [2]; 13% on cKIT; 100% in assay [3].

`Nc1ccc(-c2cncc(Oc3ccc4nc(N[C@@H]5CCCC[C@H]5O)sc4c3)n2)cn1` [Compound 97, (1R,2R)-2-(6-(6-(6-aminopyridin-3-yl)pyrazin-2-yloxy)benzo[d]thiazol-2-ylamino)cyclohexanol]: the inhibition at 1 µM at PDGFRb is 19%; in assay [1] it was 62%; in assay [2] it was 91%; at cKIT, 24%; in assay [3], 100%.

For `CN1CCN(c2ccc(-c3cncc(Oc4ccc5nc(N[C@@H]6CCCC[C@H]6O)sc5c4)n3)cn2)CC1` [Compound 98, (1R,2R)-2-(6-(6-(6-(4-methylpiperazin-1-yl)pyridin-3-yl)pyrazin-2-yloxy)benzo[d]thiazol-2-ylamino)cyclohexanol], the inhibition at 1 µM on PDGFRb was determined as 12%; in assay [1] it was 100%; in assay [2], 98%; on cKIT, 15%; in assay [3] it was 100%.

With `CN1CCN(c2ccc(-c3cc(Oc4ccc5nc(N[C@@H]6CCCC[C@H]6O)sc5c4)cnc3-c3ccc(N4CCN(C)CC4)nc3)cn2)CC1` [Compound 107, (1R,2R)-2-(6-(5,6-bis(6-(4-methylpiperazin-1-yl)-pyridin-3-yl)pyridin-3-yloxy)benzo[d]thiazol-2-ylamino)cyclohexanol], the inhibition at 1 µM came to 26% on PDGFRb; 100% in assay [1]; 86% in assay [2]; 16% at cKIT; 100% in assay [3].
